# According to ChEMBL document CHEMBL1135678, “Pyrimidoquinazoline-based antitumor agents. Design of topoisomerase II to DNA cross-linkers with activity against protein kinases” (2002):
# Activity calls are given as the source filed them. The calls are words filed in the database; no cut-off is given here.
# System: HT-29
# Assay: Compound tested for cytotoxicity against human cancer cell line (HT-29 colon); Inactive
# Format: functional, cell-based
# Conditions: not given
row,Structure (SMILES),IA
1,COCCn1c(CCl)nc2c(OC)c3c(=O)n(CCOC)c(CCl)nc3c(OC)c2c1=O,inactive
2,COCCCn1c(CCl)nc2c(OC)c3c(=O)n(CCCOC)c(CCl)nc3c(OC)c2c1=O,inactive

# System: HT-29
# Assay: Compound tested for cytotoxicity against human cancer cell line (HT-29 colon)
# Format: functional
# Conditions: not given
row,Structure (SMILES),LC50 (50% lethal concentration) [nM]
1,CC(=O)Oc1nc2cc3c(=O)n(C)c(OC(C)=O)nc3cc2c(=O)n1C,19000
2,COc1c2nc(CCl)n(C)c(=O)c2c(OC)c2c(=O)n(C)c(CCl)nc12,6330
3,Cn1c(CBr)nc2cc3c(=O)n(C)c(CBr)nc3cc2c1=O,280
4,CCCn1c(CCl)nc2cc3c(=O)n(CCC)c(CCl)nc3cc2c1=O,800
5,COc1c2nc(CCl)n(C)c(=O)c2c(OC)c2nc(CCl)n(C)c(=O)c12,110

# System: OVCAR-3
# Assay: Compound tested for cytotoxicity against human cancer cell line (Ovcar 3 ovarian)
# Format: functional
# Conditions: read-out: LC50 (the source's name)
row,Structure (SMILES),CC50 [nM]
1,Oc1nc(CBr)nc2cc3c(O)nc(CBr)nc3cc12,850
2,Cn1c(CCl)nc2cc3c(=O)n(C)c(CCl)nc3cc2c1=O,2000

# System: WiDr
# Assay: Compound tested for cytotoxicity against human cancer cell line (WiDr Colon)
# Format: functional
# Conditions: read-out: LC50 (the source's name)
row,Structure (SMILES),CC50 [nM]
1,Oc1nc(CBr)nc2cc3c(O)nc(CBr)nc3cc12,900
2,Oc1nc(CCl)nc2cc3c(O)nc(CCl)nc3cc12,5000
3,Cn1c(CCl)nc2cc3c(=O)n(C)c(CCl)nc3cc2c1=O,350
